What was measured:
[1] = test system: isolated rat brain hippocampal section preparation; experiment: isolated rat brain hippocampal section preparation, extra-cellular field potentials after electrical stimulation; conditions: in vitro, single stimulus excitation and theta-burst stimulation
Method: The measured field potentials were recorded after a single stimulus excitation and theta-burst stimulation.

[2] = test system: Fischer-344 rats; experiment: tele-stereo-EEG on unrestrained rats; format: in vivo, rat; conditions: oral administration; frontal cortex, hippocampus, striatum, reticular formation
Method: Supplementing in-vivo experiments on unrestrained rats by means of quantitative detection of the electric brain activity (tele-stereo-EEG). Observed were adult, unrestrained Fischer-344 rats with implanted 4 bipolar concentric brain electrodes. A continuous in-vivo analysis of the electric field potential (tele-stereo-EEG) of the frontal cortex, hippocampus, striatum, and reticular formation was performed analogous to Dimpfel et. al 1986. Additionally, the mobility of the rats was measured using a video tracking system by GJB […] GmbH, […], Germany. […] The “tele-stereo-EEG” model on unrestrained rats was chosen as the in-vivo model to validate results that were obtained following the rat-hippocampus in-vitro experiments, in particular the crossing of the blood-brain barrier for the described substances.

Row | Compound | influence on hippocampal electrical activity [1] | electric field potentials (tele-stereo-EEG) [2]
1 | O=C(O)[C@]1(O)C[C@@H](O)[C@@H](O)[C@H](O)C1 [quinic acid] | stimulating substances | principally contribute to the measured results
2 | CCNC(=O)CC[C@H](N)C(=O)O [theanine, 5-N-ethyl-L-glutamine] | opposite effect | principally contribute to the measured results
3 | N[C@@H](CCC(=O)O)C(=O)O [Glutamic acid, glutamic acid] | stimulating substances | –
4 | O=C(O[C@@H]1C[C@@](O)(C(=O)O)C[C@@H](O)[C@@H]1O)c1cc(O)c(O)c(O)c1 [theogallin, 5-galloyl quinic acid] | stimulating substances | principally contribute to the measured results

— US20100040762A1 (Plantextrakt GmbH & Co. KG, priority 2006, published 2010)
